According to patent US20260116920A1, “HUMAN TRANSFERRIN RECEPTOR BINDING PEPTIDE” (PEPTIDREAM INC., priority 2021, published 2026):
Positions of bridges follow the written chain, without caps; N, C: chain ends. Non-standard residues stand in square brackets, D forms with d. Residues, ends and D or L forms follow the SMILES beside them. *: point of attachment. Phe(3-COOH) = N[C@@H](Cc1cccc(C(=O)O)c1)C(=O)O; NH(CH2CH2O)8Me = COCCOCCOCCOCCOCCOCCOCCOCCN*; NMePhe(3-Cl) = CN[C@@H](Cc1cccc(Cl)c1)C(=O)O; 3Pal(6-NH2) = Nc1ccc(C[C@H](N)C(=O)O)cn1; NMeY = CN[C@@H](Cc1ccc(O)cc1)C(=O)O; 3Pal = N[C@@H](Cc1cccnc1)C(=O)O; 4Pal = N[C@@H](Cc1ccncc1)C(=O)O; PEG4 = NCCOCCOCCOCCOCCC(=O)O; Carboxymethyl = O=C(O)C*

Biological target: T1, human transferrin receptor (hTfR) (Homo sapiens, UniProt P02786)
T1 construct: made in house
T1 sequence (P02786 89-760 limits assumed): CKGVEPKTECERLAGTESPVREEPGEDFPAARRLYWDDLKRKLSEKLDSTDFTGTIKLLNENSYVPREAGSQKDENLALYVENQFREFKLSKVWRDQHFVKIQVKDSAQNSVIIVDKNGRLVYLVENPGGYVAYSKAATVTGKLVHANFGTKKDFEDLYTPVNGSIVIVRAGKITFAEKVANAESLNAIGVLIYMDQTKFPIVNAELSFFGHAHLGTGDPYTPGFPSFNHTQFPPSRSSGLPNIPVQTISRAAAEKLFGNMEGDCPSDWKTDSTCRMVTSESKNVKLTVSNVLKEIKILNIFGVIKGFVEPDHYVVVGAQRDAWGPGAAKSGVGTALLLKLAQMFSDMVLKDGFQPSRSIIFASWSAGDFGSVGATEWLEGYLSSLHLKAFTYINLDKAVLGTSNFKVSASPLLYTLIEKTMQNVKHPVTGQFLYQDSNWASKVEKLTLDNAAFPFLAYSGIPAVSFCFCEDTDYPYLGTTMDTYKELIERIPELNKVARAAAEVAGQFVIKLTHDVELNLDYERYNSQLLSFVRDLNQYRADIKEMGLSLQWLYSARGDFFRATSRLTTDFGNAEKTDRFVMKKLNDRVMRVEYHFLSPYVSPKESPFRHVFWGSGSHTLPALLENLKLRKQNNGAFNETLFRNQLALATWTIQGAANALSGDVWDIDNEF
Assay: Evaluation of molecular interaction between transferrin receptor (hTfR) and peptide using surface plasmon resonance (SPR)
Assay type: binding
Settings: surface plasmon resonance, binding to hTfR; KD class symbol; read-out: SPR (KD value)
In short: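 Recombinant human TfR dimer (0.5 μM) was captured on a Ni-charged NTA chip and amine-coupled with EDC/NHS, then ethanolamine-capped. Peptides at 5–100 nM in HEPES pH 8.0 buffer with 150 mM NaCl, 0.05% Tween 20, 0.1% BSA and 1.0% DMSO were run by single-cycle kinetics; KD came from least-squares curve fitting.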

Kd, 1 to 100 nM:
CC[C@H](C)[C@@H]1NC(=O)[C@H](Cc2cccnc2)NC(=O)[C@H](Cc2ccc(N)nc2)NC(=O)[C@H](CC(N)=O)NC(=O)[C@H](Cc2c[nH]c3ccccc23)NC(=O)[C@H](C(C)C)NC(=O)[C@H](Cc2cccc(Cl)c2)N(C)C(=O)[C@H](C(C)C)NC(=O)[C@H](C)NC(=O)CSC[C@@H](C(=O)NCCOCCOCCOCCOCCC(N)=O)NC(=O)[C@H](Cc2ccc(O)cc2)N(C)C(=O)[C@H](Cc2cccc(C(=O)O)c2)NC(=O)[C@H](CCC(=O)NCCOCCOCCOCCOCCOCCOCCOCCOC)NC(=O)[C@H](CCCNC(=N)N)NC(=O)[C@H]([C@@H](C)CC)NC1=O [compound 97] ({CH2CO}-AV[NMePhe(3-Cl)]VWN[3Pal(6-NH2)][3Pal]IIRE(NH(CH2CH2O)8Me)[Phe(3-COOH)][NMeY]C[PEG4]-NH2; thioether N-15)
CC[C@H](C)[C@@H]1NC(=O)[C@H](Cc2cccnc2)NC(=O)[C@H](Cc2ccc(N)nc2)NC(=O)[C@H](CC(N)=O)NC(=O)[C@H](Cc2c[nH]c3ccccc23)NC(=O)[C@H](C(C)C)NC(=O)[C@H](Cc2cccc(Cl)c2)N(C)C(=O)[C@H](C(C)C)NC(=O)[C@H](C)NC(=O)CSC[C@@H](C(=O)NCCOCCOCCOCCOCCC(N)=O)NC(=O)[C@H](Cc2ccc(O)cc2)N(C)C(=O)[C@H](Cc2ccncc2)NC(=O)[C@H](CCC(=O)NCCOCCOCCOCCOCCOCCOCCOCCOC)NC(=O)[C@H](CCCNC(=N)N)NC(=O)[C@H]([C@@H](C)CC)NC1=O [compound 98] ({CH2CO}-AV[NMePhe(3-Cl)]VWN[3Pal(6-NH2)][3Pal]IIRE(NH(CH2CH2O)8Me)[4Pal][NMeY]C[PEG4]-NH2; thioether N-15)
CC[C@H](C)[C@@H]1NC(=O)[C@H](Cc2ccc(OCC(=O)O)cc2)NC(=O)[C@H](Cc2ccc(N)nc2)NC(=O)[C@H](CC(N)=O)NC(=O)[C@H](Cc2c[nH]c3ccccc23)NC(=O)[C@H](C(C)C)NC(=O)[C@H](Cc2cccc(Cl)c2)N(C)C(=O)[C@H](C(C)C)NC(=O)[C@H](C)NC(=O)CSC[C@@H](C(=O)NCCOCCOCCOCCOCCC(N)=O)NC(=O)[C@H](Cc2ccc(O)cc2)N(C)C(=O)[C@H](Cc2cccc(C(=O)O)c2)NC(=O)[C@H](CCC(=O)NCCOCCOCCOCCOCCOCCOCCOCCOC)NC(=O)[C@H](CCCNC(=N)N)NC(=O)[C@H]([C@@H](C)CC)NC1=O [compound 99] ({CH2CO}-AV[NMePhe(3-Cl)]VWN[3Pal(6-NH2)]Y(Carboxymethyl)IIRE(NH(CH2CH2O)8Me)[Phe(3-COOH)][NMeY]C[PEG4]-NH2; thioether N-15)
CC[C@H](C)[C@@H]1NC(=O)[C@H](Cc2ccc(OCC(=O)O)cc2)NC(=O)[C@H](Cc2ccc(N)nc2)NC(=O)[C@H](CC(N)=O)NC(=O)[C@H](Cc2c[nH]c3ccccc23)NC(=O)[C@H](C(C)C)NC(=O)[C@H](Cc2cccc(Cl)c2)N(C)C(=O)[C@H](C(C)C)NC(=O)[C@H](C)NC(=O)CSC[C@@H](C(=O)NCCOCCOCCOCCOCCC(N)=O)NC(=O)[C@H](Cc2ccc(O)cc2)N(C)C(=O)[C@H](Cc2ccncc2)NC(=O)[C@H](CCC(=O)NCCOCCOCCOCCOCCOCCOCCOCCOC)NC(=O)[C@H](CCCNC(=N)N)NC(=O)[C@H]([C@@H](C)CC)NC1=O [compound 100] ({CH2CO}-AV[NMePhe(3-Cl)]VWN[3Pal(6-NH2)]Y(Carboxymethyl)IIRE(NH(CH2CH2O)8Me)[4Pal][NMeY]C[PEG4]-NH2; thioether N-15)
CC[C@H](C)[C@@H]1NC(=O)[C@H](Cc2ccc(OCC(=O)O)cc2)NC(=O)[C@H](Cc2ccc(O)cc2)NC(=O)[C@H](CC(N)=O)NC(=O)[C@H](Cc2cn(CC(=O)O)c3ccccc23)NC(=O)[C@H](C(C)C)NC(=O)[C@H](Cc2cccc(Cl)c2)N(C)C(=O)[C@H](C(C)C)NC(=O)[C@H](C)NC(=O)CSC[C@@H](C(=O)NCCOCCOCCOCCOCCC(N)=O)NC(=O)[C@H](Cc2ccc(O)cc2)N(C)C(=O)[C@H](Cc2ccccc2)NC(=O)[C@H](CCCNC(=N)N)NC(=O)[C@H](CCC(=O)NCCOCCOCCOCCOCCOCCOCCOCCOC)NC(=O)[C@H]([C@@H](C)CC)NC1=O [compound 101]
